Key:
[1] = molar enthalpy of vaporization or sublimation; conditions: 351.22 K; Crystal; Static calorimetry
[2] = Crystal
[3] = Molar enthalpy of transition or fusion; conditions: Crystal; DSC
[4] = molar heat capacity at constant pressure; conditions: 101.33 kPa, Crystal, Small sample (50 mg) DSC

CCCC(=O)c1ccc(O)cc1 [1-(4-hydroxyphenyl)-1-butanone]
Conditions	Molar enthalpy of transition or fusion [kcal/mol]	molar enthalpy [kcal/mol]
[1]	–	27.3
[3]	5.73	–

Conditions	mass density [kg/m3]
[2], 298 K, 101.33 kPa, X-ray diffraction	1204.5

Conditions	Normal melting temperature [°C]	molar heat capacity at constant pressure [J/K/mol]
[2], DTA	91.6	–
[4], 288.67 K	–	219.2
[4], 289.99 K	–	221.2
[4], 291.29 K	–	221.3
[4], 291.6 K	–	222
[4], 292.87 K	–	223.3
[4], 294.14 K	–	224.2
[4], 295.4 K	–	225.7
[4], 296.66 K	–	227.4
[4], 297.92 K	–	228.6
[4], 299.17 K	–	229.2
[4], 300.43 K	–	231
[4], 301.68 K	–	232.3
[4], 302.94 K	–	232.9
[4], 304.19 K	–	234.6
[4], 305.45 K	–	234.9
[4], 306.7 K	–	236.9
[4], 307.95 K	–	238.6
[4], 309.21 K	–	239.7
[4], 310.46 K	–	240.7
[4], 311.71 K	–	242
[4], 312.96 K	–	243.7
[4], 314.21 K	–	244.9
[4], 315.46 K	–	245.8
[4], 316.71 K	–	247
[4], 317.96 K	–	247.7
[4], 319.22 K	–	249.1
[4], 320.47 K	–	250.2
[4], 321.72 K	–	251.4
[4], 322.97 K	–	253
[4], 324.23 K	–	254.5
[4], 325.48 K	–	256.4
[4], 326.73 K	–	257.1
[4], 327.98 K	–	258.9
[4], 329.23 K	–	260.2
[4], 330.48 K	–	262.1
[4], 331.73 K	–	263.6
[4], 332.98 K	–	265.5
[4], 334.23 K	–	265.9
[4], 335.48 K	–	267.6
[4], 336.73 K	–	270.1
[4], 337.98 K	–	270.4
[4], 339.23 K	–	272
[4], 340.48 K	–	274.4
[4], 341.73 K	–	276
[4], 342.98 K	–	278.2
[4], 344.23 K	–	279.7
[4], 345.48 K	–	281.2
[4], 346.73 K	–	282.8
[4], 347.98 K	–	284.5
[4], 349.23 K	–	287
[4], 350.48 K	–	289

From the NIST ThermoML archive (doi:10.1016/j.jct.2016.09.026)
